From ChEMBL document CHEMBL5356971, “Optimization of the Antibacterial Spectrum and the Developability Profile of the Novel-Class Natural Product Corramycin” (J Med Chem, 2023) come the findings set out here.

In brackets after ≈: the same amount, converted by molar mass.

The nature of data set [1]: Metabolic stability in mouse kidney assessed as parent compound remaining measured after 4 hrs by UPLC-MS analysis. Particulars: read-out: Stability. The format is ADME, tissue-based.
The nature of data set [2]: Metabolic stability in mouse lung assessed as parent compound remaining measured after 4 hrs by UPLC-MS analysis. The format is ADME, tissue-based. Particulars: mouse lung, read-out: Stability.
Data set [3] is described as follows: Metabolic stability in mouse lung assessed as parent compound remaining measured after 1 hrs by UPLC-MS analysis. Type of data set: ADME, tissue-based. Particulars: mouse lung, read-out: Stability.
Data set [4] is described as follows: Metabolic stability in mouse kidney assessed as parent compound remaining measured after 1 hrs by UPLC-MS analysis. The format is ADME, tissue-based. Particulars: read-out: Stability.
The test system of data set [5] is Escherichia coli. In words: Antibacterial activity against Escherichia coli ATCC 35218 assessed as reduction in microbial growth incubated for 20 to 22 hrs by CLSI based analysis. Particulars: time 20-22 hrs. Type of data set: functional.
The subject of data set [6] is Klebsiella pneumoniae. In words: Antibacterial activity against Klebsiella pneumoniae ATCC 13883 assessed as reduction in microbial growth incubated for 20 to 22 hrs by CLSI based analysis. Type of data set: functional. Particulars: time 20-22 hrs.
Data set [7] relates to Acinetobacter baumannii. In words: Antibacterial activity against Acinetobacter baumannii ATCC 19606 assessed as reduction in microbial growth incubated for 20 to 22 hrs by CLSI based analysis. The format is functional. Particulars: time 20-22 hrs.
Data set [8] deals with Escherichia coli. In words: Antibacterial activity against Escherichia coli ATCC 35218 infected in Swiss albino mouse model of Septicaemia infection assessed as log reduction in Septicaemia in blood at 10 mg/kg , iv preincubated for 4 hrs followed by bacterial infection and measured after 4 hrs post infection. The format is functional. Particulars: time 8 hrs.
Data set [9] concerns Escherichia coli. The data set is described as follows: Antibacterial activity against […] assessed as bacterial growth inhibition incubated for 20 to 22 hrs by CLSI based analysis. Type of data set: functional. Particulars: time 20-22 hrs.
For data set [10], the system named is Escherichia coli. In words: Antibacterial activity against multidrug-resistant Escherichia coli BAA2469 assessed as bacterial growth inhibition incubated for 20 to 22 hrs by CLSI based analysis. The format is functional. Particulars: time 20-22 hrs.
The subject of data set [11] is Escherichia coli. In words: Antibacterial activity against multidrug-resistant Escherichia coli IR45 assessed as bacterial growth inhibition incubated for 20 to 22 hrs by CLSI based analysis. Type of data set: functional. Particulars: time 20-22 hrs.
Data set [12] relates to Klebsiella pneumoniae. The data set is described as follows: Antibacterial activity against multidrug-resistant Klebsiella pneumoniae BAA2146 assessed as bacterial growth inhibition incubated for 20 to 22 hrs by CLSI based analysis. Particulars: time 20-22 hrs. Type of data set: functional.
For data set [13], the system named is Klebsiella pneumoniae. The data set is described as follows: Antibacterial activity against multidrug-resistant Klebsiella pneumoniae B817 assessed as bacterial growth inhibition incubated for 20 to 22 hrs by CLSI based analysis. The format is functional. Particulars: time 20-22 hrs.
Data set [14] has as its system Pseudomonas aeruginosa. In words: Antibacterial activity against multidrug-resistant Pseudomonas aeruginosa PAO1 assessed as bacterial growth inhibition incubated for 20 to 22 hrs by CLSI based analysis. The format is functional. Particulars: time 20-22 hrs.
Data set [15] deals with Pseudomonas aeruginosa. The data set is described as follows: Antibacterial activity against multidrug-resistant Pseudomonas aeruginosa PAO750 assessed as bacterial growth inhibition incubated for 20 to 22 hrs by CLSI based analysis. Particulars: time 20-22 hrs. Type of data set: functional.
Data set [16] concerns Enterobacter cloacae. In words: Antibacterial activity against multidrug-resistant Enterobacter cloacae BAA2341 assessed as bacterial growth inhibition incubated for 20 to 22 hrs by CLSI based analysis. The format is functional. Particulars: time 20-22 hrs.
Data set [17] concerns Proteus mirabilis. In words: Antibacterial activity against multidrug-resistant Proteus mirabilis ATCC 7002 assessed as bacterial growth inhibition incubated for 20 to 22 hrs by CLSI based analysis. The format is functional. Particulars: time 20-22 hrs.
Data set [18] relates to Citrobacter freundii. In words: Antibacterial activity against multidrug-resistant Citrobacter freundii ATCC 8090 assessed as bacterial growth inhibition incubated for 20 to 22 hrs by CLSI based analysis. The format is functional. Particulars: time 20-22 hrs.
In data set [19] the test system is Providencia stuartii. In words: Antibacterial activity against multidrug-resistant Providencia stuartii ATCC 49809 assessed as bacterial growth inhibition incubated for 20 to 22 hrs by CLSI based analysis. The format is functional. Particulars: time 20-22 hrs.

By MIC is commonly meant the least concentration at which growth counts as inhibited. As for `CO[C@@H](CNC(=O)[C@H](NC(=O)[C@H](O)[C@H](C)O)[C@H](O)c1cncn1C)[C@H](O)[C@H](O)C(=O)N(C)[C@@H](Cc1ccccc1)C(=O)NCC(=O)N[C@H](C(=O)N[C@@H](CO)C(=O)N[C@H](C(=O)N[C@H](C(=O)N[C@@H](CO)C(=O)O)C(C)(C)C)C(C)(C)O)C(C)(C)O`, the remaining at 4 h came out at 72% in data set [1] and 104% in data set [2]. The remaining at 1 h in [3] came out at 105%; in data set [4], 104%. Besides, the minimal inhibitory concentration (MIC) was 2 µg/mL in data set [5], 2 µg/mL in data set [6] and above 32 µg/mL in [7]. In data set [8], the Activity is -5.9 log10CFU.
On to `C[C@@H](O)[C@H]1C(=O)N2C(C(=O)O)=C(S[C@@H]3CN[C@H](C(=O)N(C)C)C3)[C@H](C)[C@H]12` [MEROPENEM], for which the MIC in data set [9] is below 0.03 µg/mL; in data set [10], below 0.03 µg/mL; in data set [11] it was 8 µg/mL (≈ 20.9 µM); in data set [12], above 16 µg/mL; in data set [13], below 0.03 µg/mL; in [14], 1 µg/mL (≈ 2.61 µM). Besides, the minimal inhibitory concentration (MIC) in [15] was at most 0.25 µg/mL; in data set [16] it was above 16 µg/mL; in data set [17], at most 0.25 µg/mL; in data set [18], at most 0.25 µg/mL; in [19], at most 0.25 µg/mL.
